This passage reports inhibition and IC50 results from US9029389B2 (Institut Pasteur Korea, priority 2011, dated 2015).

The first assay has as its target T1, Human 5-lipoxygenase (Homo sapiens, UniProt P09917).
T1 construct: purchased Cayman 60402; host or cells: insect cells
T1 sequence (P09917 1-674): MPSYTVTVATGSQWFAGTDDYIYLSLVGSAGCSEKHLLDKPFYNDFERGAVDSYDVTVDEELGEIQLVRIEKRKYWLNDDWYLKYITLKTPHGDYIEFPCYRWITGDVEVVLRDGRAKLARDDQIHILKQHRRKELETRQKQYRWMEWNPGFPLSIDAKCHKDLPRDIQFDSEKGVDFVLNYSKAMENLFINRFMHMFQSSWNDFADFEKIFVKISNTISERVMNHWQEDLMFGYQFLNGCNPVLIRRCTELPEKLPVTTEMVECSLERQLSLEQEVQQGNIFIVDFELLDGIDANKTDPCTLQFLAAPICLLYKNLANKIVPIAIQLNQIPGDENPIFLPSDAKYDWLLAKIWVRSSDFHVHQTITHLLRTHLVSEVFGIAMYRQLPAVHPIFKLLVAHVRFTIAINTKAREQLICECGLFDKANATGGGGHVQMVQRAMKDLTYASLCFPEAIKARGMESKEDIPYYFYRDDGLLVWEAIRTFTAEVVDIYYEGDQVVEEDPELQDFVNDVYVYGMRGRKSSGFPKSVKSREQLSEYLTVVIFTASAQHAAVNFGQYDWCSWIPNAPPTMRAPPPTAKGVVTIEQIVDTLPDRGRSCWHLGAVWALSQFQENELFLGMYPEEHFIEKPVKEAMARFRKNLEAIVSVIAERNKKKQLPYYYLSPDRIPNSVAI
The assay is described as follows: Activity of compounds against 5-LO enzyme (LTB4 measurement and/or fluorescence method). The assay is classed as biochemical. The conditions noted are these: 5-LO, single concentration of 10 uM in duplicate. An outline of the steps:
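Insect-cell human 5-LO preincubated 15 min at RT with compound (pH 7.4, 2 mM CaCl2, 0.1 mM ATP, 1% DMSO), then 3 uM arachidonic acid for 5 min at 37 °C; LTB4 quantified by EIA and/or LC/MS/MS. Alternatively, fluorescence of 5-HpETE via H2DCFDA, 100 uM ATP, 3 uM arachidonic acid, 5 min, RT; single 10 uM screen then 6- or 11-point IC50.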
As usually defined, the inhibition is the drop in the measured response relative to a control, in per cent. Low values mean a weak effect, high ones a strong effect. `CCc1nc2cc(OC)ccn2c1C(=O)NCc1ccc(N2CCN(c3ccc(F)cc3)CC2)cc1` [compound 264, 2-Ethyl-N-(4-(4-(4-fluorophenyl)piperazin-1-yl)benzyl)-7-methoxyimidazo[1,2-a]pyridine-3-carboxamide]: the inhibition at 10 µM was below 40%.
The same measure, in the same setting: in the case of `CCc1nc2ccccn2c1C(=O)NCc1ccc(N2CCC(c3ccc(F)cc3)CC2)cc1` [compound 265, 2-Ethyl-N-(4-(4-(4-fluorophenyl)piperidin-1-yl)benzyl)imidazo[1,2-a]pyridine-3-carboxamide] it was above 69%; in that of `CCc1nc2ccc(Cl)cn2c1C(=O)NCc1ccc(N2CCC(c3ccc(OC(F)(F)F)cc3)CC2)cc1` [compound 267, 6-Chloro-2-ethyl-N-(4-(4-(4-(trifluoromethoxy)phenyl)piperidin-1-yl)benzyl)imidazo[1,2-a]pyridine-3-carboxamide], below 40%; in that of `CCc1nc2cc(Cl)ccn2c1C(=O)NCc1ccc(N2CCC(c3ccc(OC(F)(F)F)cc3)CC2)cc1` [compound 268, 7-Chloro-2-ethyl-N-(4-(4-(4-(trifluoromethoxy)phenyl)piperidin-1-yl)benzyl)imidazo[1,2-a]pyridine-3-carboxamide], 40 to 69%.
Same read-out and setting: the result for `CCOC(=O)C1CCN(c2ccc(CNC(=O)c3c(CC)nc4ccc(Cl)cn34)cc2)CC1` [compound 269, Ethyl1-(4-((6-chloro-2-ethylimidazo[1,2-a]pyridine-3-carboxamido)methyl)phenyl)piperidine-4-carboxylate] reads 40 to 69%; that for `CCOC(=O)C1CCN(c2ccc(CNC(=O)c3c(CC)nc4cc(Cl)ccn34)cc2)CC1` [compound 270, Ethyl 1-(4-((7-chloro-2-ethylimidazo[1,2-a]pyridine-3-carboxamido)methyl)phenyl)piperidine-4-carboxylate], 40 to 69%.
`CCc1nc2ccc(OC)cn2c1C(=O)NCc1ccc(N2CCOCC2)cc1` [compound 272] came in with an inhibition at 10 µM below 40%.
On the same count and under the same terms, in the case of `CCc1nc2cc(Cl)ccn2c1C(=O)NCc1ccc(N2CCC(C(=O)O)CC2)cc1` [compound 275, 1-(4-((7-Chloro-2-ethylimidazo[1,2-a]pyridine-3-carboxamido)methyl)phenyl)piperidine-4-carboxylic acid] it was below 40%; in that of `CCc1nc2ccc(Cl)cn2c1C(=O)NCc1ccc(N2CCC(COC(C)C)CC2)cc1` [compound 276, 6-Chloro-2-ethyl-N-(4-(4-(isopropoxymethyl)piperidin-1-yl)benzyl)imidazo[1,2-a]pyridine-3-carboxamide], below 40%.
Regarding `CCc1nc2cc(Cl)ccn2c1C(=O)NCc1ccc(N2CCC(COC(C)C)CC2)cc1` [compound 277, 7-Chloro-2-ethyl-N-(4-(4-(isopropoxymethyl)piperidin-1-yl)benzyl)imidazo[1,2-a]pyridine-3-carboxamide], the inhibition at 10 µM was below 40%.
Still for that read-out and setting: in the case of `CCc1nc2cc(C)ccn2c1C(=O)NCc1ccc(OC(F)(F)F)cc1` [compound 280, 2-Ethyl-7-methyl-N-(4-(trifluoromethoxy)benzyl)imidazo[1,2-a]pyridine-3-carboxamide] it was below 40%; in that of `CCc1nc2cc(Br)ccn2c1C(=O)NCc1ccc(OC(F)(F)F)cc1` [compound 281, 7-Bromo-2-ethyl-N-(4-(trifluoromethoxy)benzyl)imidazo[1,2-a]pyridine-3-carboxamide], 40 to 69%; in that of `CCc1nc2c(F)cccn2c1C(=O)NCc1ccc(OC(F)(F)F)cc1` [compound 282, 2-Ethyl-8-fluoro-N-(4-(trifluoromethoxy)benzyl)imidazo[1,2-a]pyridine-3-carboxamide], below 40%.
Compound `CCc1nc2c(-c3ccncc3)cccn2c1C(=O)NCc1ccc(N2CCN(c3ccc(F)cc3)CC2)cc1` [compound 283, 2-Ethyl-N-(4-(4-(4-fluorophenyl)piperazin-1-yl)benzyl)-8-(pyridin-4-yl)imidazo[1,2-a]pyridine-3-carboxamide] came in with an inhibition at 10 µM below 40%.

Staying with this assay, now noted: 6 or 11 point dose response in duplicate.
As usually defined, the IC50 is the concentration needed to halve the response being measured. A high value points to weaker potency in that assay. In the case of `CCc1nc2ccccn2c1C(=O)NCc1ccc(N2CCC(c3ccc(F)cc3)CC2)cc1` [compound 265, 2-Ethyl-N-(4-(4-(4-fluorophenyl)piperidin-1-yl)benzyl)imidazo[1,2-a]pyridine-3-carboxamide], the IC50 is below 1 µM.
